In patent US20250195604A1, “Compositions and Methods of Treatment of Certain Vasculitis Syndromes” (Soligenix, Inc., priority 2023, published 2025):
Entries after “also recorded” stand apart in the source; their conditions may differ. Read-outs that look alike come from different tables or passages of the source. No end group written: not given here.

Legend:
MRSA [1] = conditions: mouse, in vivo
bacterial challenge = assay: Bacterial challenge in mice rendered leukopenic by cyclophosphamide; assay type: in vivo, mouse
[2] = test system: mouse blood cells challenged with LPS; assay: Ex vivo LPS challenge of mouse blood cells after in vivo dusquetide
Description: (§1) The innate immune system involves numerous cell types distributed throughout the body in both circulating and tissue-resident compartments. The interaction of all the cells defines the aggregate response. […] Nevertheless, cellular and molecular studies with individual cell types or sub-groups of cell types are informative but must be interpreted cautiously when used to predict the behavior of the system in vivo. […] By contrast, when dusquetide exposure of either mouse or human blood occurs in vitro, although the TNFα response to LPS challenge is unaffected, the MCP-1 response is reduced. The responses of mouse and human primary blood cells to dusquetide in this in vitro setting are quantitatively and qualitatively similar.
(§2) Further studies have explored the ability of blood cells to respond to a pathogen (or pathogen-like) challenge in vitro after prior exposure to dusquetide in vivo—an “ex vivo” test system that provides information about the “responsiveness” of the innate defense system. The responsiveness of mouse and NHP innate defense systems have been characterized by measuring changes in cytokine and chemokine production following ex vivo challenge of blood cells with LPS. In general, no evidence of broad-spectrum activation was observed.

MRSA [3] = assay: MRSA infection in athymic nude mice; assay type: in vivo
[4] = test system: mucositis (oral and lower GI tract); conditions: mice after chemotherapy, Kudrimoti 2016; cited from earlier work
[5] = test system: mouse primary cell cultures; conditions: North 2016; cited from earlier work
[6] = test system: mouse macrophage-like cell line; assay: Signalling after dusquetide exposure in mouse macrophage-like cell line; assay type: cell-based
[7] = test system: dextran sulphate sodium (DSS)-induced colitis; conditions: Kudrimoti 2016, levels comparative to maximal steroid use; cited from earlier work
[8] = target: sequestosome-1, also known as p62 (Homo sapiens, UniProt Q13501); conditions: Yu 2009, Zhang 2022; cited from earlier work
sequestosome-1, also known as p62, sequence (Q13501 whole entry): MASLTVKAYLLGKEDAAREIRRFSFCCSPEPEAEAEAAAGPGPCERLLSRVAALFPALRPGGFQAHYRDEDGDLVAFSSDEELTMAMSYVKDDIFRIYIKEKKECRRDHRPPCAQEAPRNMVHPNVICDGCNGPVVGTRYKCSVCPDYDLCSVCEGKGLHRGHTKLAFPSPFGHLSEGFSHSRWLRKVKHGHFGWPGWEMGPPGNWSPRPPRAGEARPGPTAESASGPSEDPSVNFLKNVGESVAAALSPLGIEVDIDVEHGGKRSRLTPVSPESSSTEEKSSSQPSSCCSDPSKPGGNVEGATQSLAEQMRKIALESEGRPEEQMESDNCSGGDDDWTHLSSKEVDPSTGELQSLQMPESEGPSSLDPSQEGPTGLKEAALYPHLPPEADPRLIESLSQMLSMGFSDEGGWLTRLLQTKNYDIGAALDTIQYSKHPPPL

p62 = p62 (Homo sapiens, UniProt Q13501); conditions: Yu 2009; cited from earlier work
p62, sequence (Q13501 whole entry): as above

NFKB = NFKB activation on dusquetide binding to p62; assay type: cell-based
[9] = test system: human primary cell cultures; conditions: North 2016; cited from earlier work
MRSA [10] = assay: IV MRSA challenge model (bacteremia) in mice
[11] = test system: cytokine or chemokine levels; assay: Circulating cytokine and chemokine levels in normal mice; assay type: in vivo, mouse
[12] = test system: mouse blood challenged with LPS; assay: LPS challenge of mouse blood exposed to dusquetide in vitro; assay type: cell-based; conditions: dusquetide exposure in vitro
Description: as §1

[13] = test system: whole blood stimulated with LPS (E. coli); assay: Phase 1 study: in vitro LPS stimulation of whole blood from SAD and MAD volunteers, cytokine and chemokine analytes; assay type: in vivo, human
Protocol: Solid lines indicate the mean response, dashed lines the respective 95% CI for the population.
(§3) In a Phase 1 study, patients received single ascending doses (0.15 to 8.0 mg/kg) and multiple ascending doses (daily 7× 0.5 to 6.5 mg/kg) of dusquetide as 4-minutes IV infusions. To determine the pharmacodynamic profile of dusquetide, cytokine and chemokine analytes were quantified after 4 h of in vitro stimulation of whole blood with LPS (E. coli) to determine dusquetide effects on dose, gender and any extended impact on PD.
The following panel of cytokine and chemokine analytes were quantified: IL-la; IL-1B; IL-6; IL-1ra; TNFα; Tumor Necrosis Factor-Receptor II (TNF RII); MCP-1; Macrophage Inflammatory Protein-1alpha (MIP-la; also known as CCL3); MIP-1B (also known as CCL4) and RANTES (also known as CCL5). The dusquetide-treated population (N=56) in the combined SAD and MAD data set was subdivided into “low dose” (N=26, 0.15-2.0 mg/kg) and “high dose” (N=30; 3.0-8.0 mg/kg) groups and these were compared to the combined placebo group (N=22).

[14] = test system: severe oral mucositis (SOM); assay: Phase 2 study of oral mucositis in head and neck cancer patients receiving radiation and cisplatin (IDR-OM-01); assay type: in vivo, human
Protocol: The Phase 2 study was designed to examine the effects of dusquetide on ameliorating OM in patients with oral or oropharyngeal squamous cell carcinoma who were undergoing therapy with fractionated radiation (2.0-2.2 Gy per day for a total planned cumulative dose of 55-75 Gy) and chemotherapy with cisplatin given either as “low dose” (30-40 mg/m2 every week) or as “high dose” or “aggressive” cisplatin (80-100 mg/m2 given every 3 weeks). Dusquetide was evaluated in this dose ranging study at doses of 1.5, 3.0 (3 patients only) and 6.0 mg/kg.

[15] = test system: fractionated radiation-induced mucositis; assay: Hamster model of fractionated radiation-induced mucositis; assay type: in vivo
Description: Dusquetide has been extensively studied in animal models of both mucosal damage (where damage associated molecular patterns (DAMPS)) trigger the innate defense system) and bacterial infection (where pathogen associated molecular patterns (PAMPS)) trigger the innate defense system).

[16] = test system: response to lipopolysaccharide; conditions: North 2016, Yu 2009; cited from earlier work
[17] = test system: nonhuman primate (NHP) primary cell cultures; conditions: North 2016; cited from earlier work
[18] = test system: mouse macrophage-like cell line; conditions: medium of dusquetide-incubated splenocytes, North 2016; cited from earlier work
[19] = test system: severe oral mucositis (SOM); assay: Phase 3 study IDR-OM-02, oral mucositis in head and neck cancer patients receiving chemoradiation; assay type: in vivo, human; conditions: 1.5 mg/kg twice per week
Protocol: Subsequently a Phase 3 international study (Study IDR-OM-02) evaluated dusquetide in the treatment of […] in head and neck cancer patients receiving concomitant chemoradiation therapy (at least 55 Gy radiation therapy and 80 to 100 mg/m2 cisplatin received every third week). 266 patients were enrolled in the randomized, blinded and placebo-controlled study assessing treatment with 1.5 mg/kg dusquetide administered twice per week as a 4-minute infusion.

[20] = Phase 1 studies, safety of IV dusquetide; assay type: in vivo, human; conditions: dose levels of 0.15 to 8.0 mg/kg
Protocol: The dosage form of dusquetide is an aqueous, aseptically processed, sterile solution for injection. Each vial contains 5 mL of a 60 mg/mL solution (300 mg of dusquetide). Dusquetide is formulated in water for injection and pH adjusted to a target value of 6.0. The preferred formulation of the present invention contains no excipients and has an osmolality of ˜300 mOsm/kg. Dusquetide drug product is diluted in sterile saline to the appropriate concentration for injection, determined on a mg/kg basis by the recipient's weight at a dose level of 1.5 mg/kg. Diluted dusquetide is administered as an intravenous (IV) infusion in 25 mL over 4 minutes, once every third day.
as §3

[21] = test system: NHP blood cultured with LPS; assay: Ex vivo LPS challenge of NHP blood after in vivo dusquetide; conditions: for IL-1β response to LPS / MIP-la response to LPS: NHP
Description: as §2

[22] = test system: cytokine and chemokine levels; assay: Circulating cytokine and chemokine levels in NHPs; assay type: in vivo, NHP
[23] = test system: dextran sulphate sodium (DSS)-induced colitis; parameters: species or system male C57BL/6 mice; conditions: mouse, in vivo
[24] = test system: severe oral mucositis (SOM); conditions: cited from earlier work; for overall infection rate: Kudrimoti 2016
[25] = test system: MRSA, S. aureus, K. pneumoniae, B. pseudomallei; conditions: mouse, in vivo; cited from earlier work
[26] = test system: human epithelial cell lines; assay: Signalling after dusquetide exposure in human epithelial cell lines; assay type: cell-based
[27] = test system: human blood challenged with LPS; assay: LPS challenge of human blood exposed to dusquetide in vitro; assay type: cell-based; conditions: dusquetide exposure in vitro
Description: as §1

[28] = dusquetide in vivo before culture
[29] = low dose group (0.15-2.0 mg/kg)
[30] = low dose group (0.15-2.0 mg/kg), 1 h timepoint, vs placebo or high dose
[31] = 1.5 mg/kg, all patients, vs placebo
[32] = 1.5 mg/kg, every 3rd week cisplatin subpopulation
[33] = 1.5 mg/kg, every 3rd week cisplatin subpopulation, vs placebo
[34] = hamster, fractionated radiation
[35] = longer term, 12-24 h after administration
[36] = short term, 1 to 4 h after administration, modest

RIVPA-NH2 [dusquetide, L-arginyl-L-isoleucyl-L-valyl-L-prolyl-L-alanine-amide]
swelling of abraded skin (MRSA [1]): reduced | ulceration of abraded skin (MRSA [1]): reduced | survival (bacterial challenge): survival benefit | ex vivo MCP-1 response to LPS [2, 28]: increases | ex vivo TNFα response to LPS [2, 28]: decreases | responses of most analytes (58 cytokines and chemokines) to LPS [2, 28]: insignificant changes | ex vivo MCP-3 response to LPS ([2]; dusquetide in vivo vs saline): increases | survival (MRSA [3]): survival benefit | duration of mucositis [4]: decreased | intensity of mucositis [4]: decreased | expression patterns of chemokines such as MCP-1 [5]: modulated | C/EBPB activation [6]: transient activation | p38 MAP kinase activation [6]: transient activation | protection of the lower GI [7]: further protection | binding to sequestosome-1 (p62) [8]: bind (but not inhibit); also recorded: binds | p62 interaction with PKCS (p62): no effect | p62 interaction with RIP1 (p62): selectively alters | p62 interaction with TRAF6 (p62): no effect | activation of NFKB (NFKB): does not cause persistent activation | expression patterns of chemokines such as MCP-1 [9]: modulated | relation to antibiotic administration (MRSA [10]; IV, therapeutic or prophylactic administration): complementary to antibiotic administration | IV dose at which efficacy is consistently seen (MRSA [10]; mice, IV): greater than or equal to 5 mg/kg | duration of PD effects of a single dose (MRSA [10]; mice, depending on the dose level): up to 5 days | circulating half-life (MRSA [10]; mouse, in vivo): short | cytokine or chemokine levels [11]: no changes | MCP-1 response to LPS challenge [12]: reduced | TNFα response to LPS challenge [12]: unaffected | measured cytokine and chemokine analytes ([13]; high dose group (3.0-8.0 mg/kg)): very similar to the placebo group | ratio IL-1ra/IL-1B [13, 29]: more distinct increased responses | ratio TNF RII/TNFα [13, 29]: more distinct increased responses | IL-1B after LPS stimulation of whole blood [13, 30]: slightly decreased | IL-1ra after LPS stimulation of whole blood [13, 30]: slightly increased | IL-1x after LPS stimulation of whole blood [13, 30]: slightly decreased | TNFα after LPS stimulation of whole blood [13, 30]: slightly decreased | median duration of SOM ([14]; 1.5 mg/kg, all patients): 9 days | reduction in median duration of SOM vs placebo ([14]; 1.5 mg/kg, all patients): 50% | reduction in median AUC for the WHO Grade-time calculation [14, 31]: 39% | reduction in the incidence of SOM [14, 31]: 7% | decrease in median duration of SOM vs placebo [14, 32]: 67% | median duration of SOM [14, 32]: 10 days | onset of disease [14, 32]: no impact | reduction in median AUC WHO Grade-time calculation [14, 33]: 51% | relative reduction in incidence of SOM [14, 33]: 18% | AUC (WHO Grade-time) ([14]; 1.5 mg/kg, weekly cisplatin): 10.5 | decrease in median duration of SOM vs placebo ([14]; 1.5 mg/kg, weekly cisplatin): 50% | median duration of SOM ([14]; 1.5 mg/kg, weekly cisplatin): 5 days | reduction in the AUC vs placebo ([14]; 1.5 mg/kg, weekly cisplatin): 55% | most efficacious dose ([14]; dose ranging 1.5, 3.0 and 6.0 mg/kg): 1.5 mg/kg | efficacy by regimen ([15]; every 2nd or 3rd day at 25 mg/kg): effective | duration of SOM [15, 34]: decrease | intensity of SOM [15, 34]: decrease | ILIra relative to IL-1B [16]: increasing | TNFRII relative to TNFα [16]: increasing | expression patterns of chemokines such as MCP-1 [17]: modulated | IL-6 response of macrophage cell line [18]: suppressing | IL-10 response of macrophage cell line [18]: suppressing | TNFα response of macrophage cell line [18]: suppressing | response in duration of SOM ([19]; intent to treat (ITT) population): not | response in duration of SOM ([19]; per protocol (PP) population): statistically significant response | safety of administration [20]: safely administered | IL-1β response to LPS [21, 35]: mild elevations | MIP-la response to LPS [21, 35]: mild elevations | IL-1β response to LPS [21, 36]: decreases | MIP-la response to LPS [21, 36]: decreases | IL-1ra response to LPS ([21]; blood from dusquetide-treated NHP): marked increase | responses of most analytes (47 cytokines and chemokines) to LPS ([21]; primate, dusquetide in vivo before culture): insignificant changes | MCP-1 levels ([22]; NHP, transient): modest changes | IL-1ra level ([22]; NHPs): marked but variable increase | levels of most cytokines and chemokines ([22]; NHPs): no substantial changes | degree of response compared with 3 mg/kg prednisolone of 0.5 mg/kg budesonide [23]: similar | formulation of oral ulcers ([24]; Kudrimoti 2016, Kudrimoti 2017): suppress | overall infection rate [24]: reduction | overall infection rate ([24]; listed as Dusquetide): decreasing | bacterial growth [25]: reduced bacterial growth | survival [25]: increased survival | C/EBPB activation [26]: transient activation | p38 MAP kinase activation [26]: transient activation | MCP-1 response to LPS challenge [27]: reduced | TNFα response to LPS challenge [27]: unaffected
